These results are taken from patent US20250073244A1, “CRYSTALLINE FORMS OF PENTAAZA MACROCYCLIC RING COMPLEX” (Galera Labs, LLC, priority 2023, published 2025).

Holding throughout (type): physicochemical
Data set [1] in a line: Form E generation attempts via desolvation or heating. The source says:
These attempts were not successful in providing Form E as a pure crystalline phase. Mixtures primarily composed of Form E and other unidentified crystalline phase(s) were obtained (FIG. 42).
Heat induced crystallization of amorphous GC4711 is described in Table 50.

Data set [2] can be described thus: Approximate solubility of the starting material at 25° C. and 50° C. As to the method:
About 10 mg of drug substance was weighed to a 2 mL glass vial and aliquot of 20 μL of each solvent will be added to determine solubility at 50° C. Approximate solubility was determined by visual observation.

Assay in data set [3]: as above
This is another data set of the same source.

A short description of data set [4]: Differential scanning calorimetry (DSC). The conditions noted are these: −30 to 250° C. As to the method:
DSC was performed using a Mettler-Toledo DSC3+ differential scanning calorimeter. A tau lag adjustment is performed with indium, tin, and zinc. The temperature and enthalpy are adjusted with octane, phenyl salicylate, indium, tin and zinc. The adjustment is then verified with octane, phenyl salicylate, indium, tin, and zinc. The sample was placed into a hermetically sealed aluminum DSC pan, the weight was accurately recorded, and the sample was inserted into the DSC cell. A weighed aluminum pan configured as the sample pan was placed on the reference side of the cell. The pan lid was pierced prior to sample analysis. […]
A cycling DSC experiment was conducted for as-received amorphous, in which the sample was analyzed from −25° C. to 200° C., then cooled to −25° C. and reheated to 250° C. at 10° C./min.

Data set [5] in a line: X-ray powder diffraction (XRPD). As to the method: XRPD patterns were collected with a PANalytical X'Pert PRO MPD or a PANalytical Empyrean diffractometer using an incident beam of Cu radiation produced using an Optix long, fine-focus source. An elliptically graded multilayer mirror was used to focus Cu Kα X-rays through the specimen and onto the detector. Prior to the analysis, a silicon specimen (NIST SRM 640e or 640f) was analyzed to verify the observed position of the Si 111 peak is consistent with the NIST-certified position. A specimen of the sample was sandwiched between 3-μm-thick films and analyzed in transmission geometry. […]
XRPD patterns were collected with a PANalytical X'Pert PRO MPD diffractometer using an incident beam of Cu Kα radiation produced using a long, fine-focus source and a nickel filter. […] Prior to the analysis, a silicon specimen (NIST SRM 640e or 640f) was analyzed to verify the observed position of the Si 111 peak is consistent with the NIST-certified position. […]
XRPD patterns were collected with a PANalytical X'Pert PRO MPD or a PANalytical Empyrean diffractometer using an incident beam of Cu radiation produced using an Optix long, fine-focus source. […] Prior to the analysis, a silicon specimen (NIST SRM 640e or 640f) was analyzed to verify the observed position of the Si 111 peak is consistent with the NIST-certified position. […]

Take `CCC(=O)[O][Mn][O]C(=O)CC.c1cc2nc(c1)CN[C@H]1CCCC[C@@H]1NCCN[C@H]1CCCC[C@@H]1NC2` [Form 8429-39-01]: the Observation in data set [1] (amorphous material (pale light yellow) after held @ 100° C., 5 min.) was 3. peach in color.
Take `CCC(=O)[O][Mn][O]C(=O)CC.c1cc2nc(c1)CN[C@H]1CCCC[C@@H]1NCCN[C@H]1CCCC[C@@H]1NC2` [drug substance]: the Solubility result in data set [2] (1,4-Dioxane) is “S > 259.5 mg/mL”; in data set [2] (2-Propanol), “S > 292.5 mg/mL”; in data set [2] (Acetonitrile), “S > 315.5 mg/mL”; in data set [2] (Dichloromethane) it was “S > 278.5 mg/mL”; in data set [2] (Ethanol), “S > 281.5 mg/mL”; in data set [2] (Methanol), “S > 332.0 mg/mL”. The Solubility entry is “S > 319.0 mg/mL” in data set [2] (Tetrahydrofuran); “S > 337.5 mg/mL” in data set [2] (Water); “S > 285.5 mg/mL” in data set [3] (2-Propanol, 25° C.); “S > 297.5 mg/mL” in data set [3] (Dichloromethane, 25° C.); “S > 322.5 mg/mL” in data set [3] (Ethanol, 25° C.); “S < 3.7 mg/mL” in data set [3] (Heptane, 25° C.). The Solubility result in data set [3] (Heptane, 50° C.) is “S < 3.7 mg/mL”; in data set [3] (Methanol, 25° C.), “S > 306.0 mg/mL”; in data set [3] (Tetrahydrofuran, 25° C.), “S > 319.0 mg/mL”; in data set [3] (Water, 25° C.), “S > 314.5 mg/mL”.
Consider `CCC(=O)[O][Mn][O]C(=O)CC.c1cc2nc(c1)CN[C@H]1CCCC[C@@H]1NCCN[C@H]1CCCC[C@@H]1NC2` [Sample 8429-73-01], for which the DSC minor endotherm result in data set [4] is “minor endotherm near 197 °C”. Besides, in data set [5], the “XRPD Result” value is recorded as “Form E + peaks”.
Take `CCC(=O)[O][Mn][O]C(=O)CC.c1cc2nc(c1)CN[C@H]1CCCC[C@@H]1NCCN[C@H]1CCCC[C@@H]1NC2` [Sample 8429-84-01]: the “Result (form)” value in data set [1] (8429-79-01 and 8429-79-02, Form A + E combined and stored over P2O5, 5 days) is “E + A”.
Regarding `CCC(=O)[O][Mn][O]C(=O)CC.c1cc2nc(c1)CN[C@H]1CCCC[C@@H]1NCCN[C@H]1CCCC[C@@H]1NC2` [Sample 8516-07-01], the “Result (form)” value in data set [1] (8429-97-01 Forn E + Form A, vacuum dried, ambient, 2 days) was “peaks”.
As to `CCC(=O)[O][Mn][O]C(=O)CC.c1cc2nc(c1)CN[C@H]1CCCC[C@@H]1NCCN[C@H]1CCCC[C@@H]1NC2` [Form 8429-73-01], in data set [4], the DSC endotherm onset result is “endotherm onset of 232 °C”.
Take `CCC(=O)[O][Mn][O]C(=O)CC.c1cc2nc(c1)CN[C@H]1CCCC[C@@H]1NCCN[C@H]1CCCC[C@@H]1NC2` [Sample 8429-97-03]: in data set [1] (P2O5, 4 days), the “Result (form)” value is given as “E + A”.
